Converted amounts (≈) assume the structure as drawn.
What was measured:
[1] = test system: Escherichia coli; assay: Potentiation of colistin-induced antibacterial activity against Escherichia coli AR-0493 assessed as minimum re-sensitizing concentration; assay type: functional; conditions: read-out: MEC
[2] = Cytotoxicity against human HepG2 cells by Cell Titer Glo assay; assay type: toxicity, cell-based
[3] = Selectivity index, ratio of GI50 for cytotoxicity against human HepG2 cells to MEC for potentiation of colistin-induced antibacterial activity against Escherichia coli AR-0493 assessed as minimum re-sensitizing concentration; assay type: toxicity, cell-based; conditions: read-out: Selectivity Index
[4] = test system: Escherichia coli; assay: Antibacterial activity against Escherichia coli AR-0493 by CLSI based susceptibility testing method; assay type: functional
[5] = test system: Salmonella typhimurium; assay: Potentiation of colistin-induced antibacterial activity against Salmonella typhimurium AR-0635 harboring mcr-4 gene assessed as colistin MIC at 1 ug/ml; assay type: functional, Salmonella enterica subsp. enterica serovar Typhimurium; conditions: Salmonella enterica, dose 1 µg/ml
[6] = test system: Escherichia coli; assay: Potentiation of colistin-induced antibacterial activity against Escherichia coli AR-0493 harboring mcr-1 gene assessed as colistin MIC at 1 ug/ml; assay type: functional; conditions: dose 1 µg/ml
[7] = test system: Klebsiella pneumoniae; assay: Potentiation of colistin-induced antibacterial activity against Klebsiella pneumoniae AR-0497 harboring mcr-1 gene assessed as colistin MIC at 1 ug/ml; assay type: functional; conditions: dose 1 µg/ml
[8] = test system: Escherichia coli; assay: Potentiation of colistin-induced antibacterial activity against Escherichia coli AR-0538 harboring mcr-2 gene assessed as colistin MIC at 1 ug/ml; assay type: functional; conditions: dose 1 µg/ml
[9] = test system: Pseudomonas aeruginosa; assay: Potentiation of colistin-induced antibacterial activity against Pseudomonas aeruginosa AR-0239 assessed as colistin MIC at 1 ug/ml; assay type: functional; conditions: dose 1 µg/ml
[10] = test system: Salmonella typhimurium; assay: Potentiation of colistin-induced antibacterial activity against Salmonella typhimurium AR-0539 harboring mcr-3 gene assessed as colistin MIC at 1 ug/ml; assay type: functional, Salmonella enterica subsp. enterica serovar Typhimurium; conditions: Salmonella enterica, dose 1 µg/ml
[11] = test system: Acinetobacter baumannii; assay: Potentiation of colistin-induced antibacterial activity against Acinetobacter baumannii AR-0310 assessed as colistin MIC at 1 ug/ml; assay type: functional; conditions: dose 1 µg/ml
[12] = test system: Escherichia coli; assay: Synergistic antibacterial activity against Escherichia coli AR-0493 assessed as fractional inhibitory concentration index in presence of colistin by Checkerboard broth microdilution assay; assay type: functional

Structure (SMILES): FC(F)CNc1nc2nonc2nc1Nc1cccc(Cl)c1
- minimal effective concentration [1]: 2 µg/mL

Structure (SMILES): CCCCNc1nc2nonc2nc1NCCCC
- minimal effective concentration [1]: 8 µg/mL

Structure (SMILES): Clc1cccc(Nc2nc3nonc3nc2NCC2CC2)c1
- minimal effective concentration [1]: 1 µg/mL

Structure (SMILES): CCCCNc1nc2nonc2nc1Nc1cccc(Cl)c1
- GI50 [2]: 5.7 µg/mL (≈ 17.9 µM)
- minimal effective concentration [1]: 0.5 µg/mL
- selectivity ratio [3]: 11
- MIC [4]: > 64 µg/mL

Structure (SMILES): CNc1nc2nonc2nc1Nc1cccc(Cl)c1
- minimal effective concentration [1]: 8 µg/mL

Structure (SMILES): CC(C)(C)Nc1nc2nonc2nc1Nc1cccc(Cl)c1
- minimal effective concentration [1]: 2 µg/mL

Structure (SMILES): CC(C)(C)OC(=O)N1CC(CNc2nc3nonc3nc2Nc2cccc(Cl)c2)C1
- minimal effective concentration [1]: 4 µg/mL

Structure (SMILES): Clc1cccc(Nc2nc3nonc3nc2NCCc2ccccc2)c1
- GI50 [2]: 0.83 µg/mL (≈ 2.26 µM)
- minimal effective concentration [1]: 0.5 µg/mL
- selectivity ratio [3]: 1.7
- MIC [4]: > 64 µg/mL

Structure (SMILES): c1ccc2nc(NCCNc3nc4nonc4nc3NCCNc3ccc4ccccc4n3)ccc2c1
- minimal effective concentration [1]: > 16 µg/mL

Structure (SMILES): CCCCCCCCNc1nc2nonc2nc1Nc1cccc(Cl)c1
- minimal effective concentration [1]: 1 µg/mL

Structure (SMILES): Clc1cccc(Nc2nc3nonc3nc2NC2CCCCC2)c1
- minimal effective concentration [1]: 1 µg/mL

Structure (SMILES): Nc1nc2nonc2nc1Nc1cccc(Cl)c1
- minimal effective concentration [1]: 4 µg/mL

Structure (SMILES): Clc1cccc(Nc2nc3nonc3nc2NCC2CCC2)c1
- minimal effective concentration [1]: 1 µg/mL

Structure (SMILES): Clc1ccc2[nH]cc(CCNc3nc4nonc4nc3NCCc3c[nH]c4ccc(Cl)cc34)c2c1
- minimal effective concentration [1]: > 16 µg/mL

Structure (SMILES): Clc1cccc(Nc2nc3nonc3nc2Nc2cccc(Cl)c2)c1
- MIC [5]: 1 µg/mL
- MIC [6]: 1 µg/mL
- MIC [7]: 1 µg/mL
- MIC [8]: 1 µg/mL
- MIC [9]: 1 µg/mL
- MIC [10]: 1 µg/mL
- MIC [11]: 0.25 µg/mL

Structure (SMILES): CCCNc1nc2nonc2nc1NCCC
- minimal effective concentration [1]: > 16 µg/mL

Structure (SMILES): FC(F)(F)Oc1cccc(CNc2nc3nonc3nc2NCc2cccc(OC(F)(F)F)c2)c1
- GI50 [2]: 2.3 µg/mL (≈ 4.6 µM)
- minimal effective concentration [1]: 0.125 µg/mL
- selectivity ratio [3]: 18
- MIC [4]: > 64 µg/mL

Structure (SMILES): Clc1cccc(Nc2nc3nonc3nc2NC2CC2)c1
- minimal effective concentration [1]: 1 µg/mL

Structure (SMILES): Clc1ccc(CNc2nc3nonc3nc2NCc2ccc(Cl)cc2)cc1
- fractional inhibitory concentration index (FICI) [12]: 0.07
- MIC [5]: 2 µg/mL
- GI50 [2]: 4.5 µg/mL (≈ 11.2 µM)
- MIC [6]: 0.5 µg/mL
- MIC [7]: 2 µg/mL
- MIC [8]: 1 µg/mL
- minimal effective concentration [1]: 0.125 µg/mL
- MIC [9]: 1 µg/mL
- MIC [10]: 1 µg/mL
- selectivity ratio [3]: 36
- MIC [4]: > 64 µg/mL
- MIC [11]: 0.5 µg/mL

Structure (SMILES): CC(C)CCNc1nc2nonc2nc1NCCC(C)C
- minimal effective concentration [1]: 2 µg/mL

Structure (SMILES): FC(F)(F)c1nc(NCCCNc2nc3nonc3nc2Nc2cccc(Cl)c2)ccc1Cl
- fractional inhibitory concentration index (FICI) [12]: 0.039
- MIC [5]: 1 µg/mL
- GI50 [2]: 8.7 µg/mL (≈ 17.4 µM)
- MIC [6]: 0.5 µg/mL
- MIC [7]: 1 µg/mL
- MIC [8]: 1 µg/mL
- minimal effective concentration [1]: 0.25 µg/mL
- MIC [9]: 1 µg/mL
- MIC [10]: 0.5 µg/mL
- selectivity ratio [3]: 35
- MIC [4]: > 64 µg/mL
- MIC [11]: 0.25 µg/mL

Structure (SMILES): Clc1cccc(CNc2nc3nonc3nc2NCc2cccc(Cl)c2)c1
- GI50 [2]: 1.6 µg/mL (≈ 3.99 µM)
- minimal effective concentration [1]: 0.5 µg/mL
- selectivity ratio [3]: 3.2
- MIC [4]: > 64 µg/mL

Structure (SMILES): FC1(F)CC(CNc2nc3nonc3nc2Nc2cccc(Cl)c2)C1
- minimal effective concentration [1]: 1 µg/mL

Structure (SMILES): CC(C)(C)Nc1nc2nonc2nc1NC(C)(C)C
- minimal effective concentration [1]: 8 µg/mL

Structure (SMILES): Clc1cccc(Nc2nc3nonc3nc2NCC2COC2)c1
- minimal effective concentration [1]: > 16 µg/mL

Structure (SMILES): CCCCCCCNc1nc2nonc2nc1NCCCCCCC
- GI50 [2]: 0.65 µg/mL (≈ 1.87 µM)
- minimal effective concentration [1]: 0.5 µg/mL
- selectivity ratio [3]: 1.3
- MIC [4]: > 64 µg/mL

Structure (SMILES): CCCCCNc1nc2nonc2nc1Nc1cccc(Cl)c1
- GI50 [2]: 2.1 µg/mL (≈ 6.31 µM)
- minimal effective concentration [1]: 0.5 µg/mL
- selectivity ratio [3]: 4.3
- MIC [4]: > 64 µg/mL

Structure (SMILES): Fc1cccc(CNc2nc3nonc3nc2Nc2cccc(Cl)c2)c1
- minimal effective concentration [1]: 1 µg/mL

Structure (SMILES): FC(F)(F)c1cccc(CNc2nc3nonc3nc2NCc2cccc(C(F)(F)F)c2)c1
- minimal effective concentration [1]: > 16 µg/mL

Structure (SMILES): Clc1cccc(Nc2nc3nonc3nc2NCCc2c[nH]c3ccc(Cl)cc23)c1
- minimal effective concentration [1]: 1 µg/mL

Structure (SMILES): CCCCCCCCCCCCNc1nc2nonc2nc1Nc1cccc(Cl)c1
- minimal effective concentration [1]: > 16 µg/mL

Structure (SMILES): FC(F)(F)c1cccc(CNc2nc3nonc3nc2Nc2cccc(Cl)c2)c1
- GI50 [2]: 5.5 µg/mL (≈ 13.1 µM)
- minimal effective concentration [1]: 0.25 µg/mL
- selectivity ratio [3]: 22
- MIC [4]: > 64 µg/mL

Structure (SMILES): Clc1cccc(CNc2nc3nonc3nc2Nc2cccc(Cl)c2)c1
- GI50 [2]: 3.8 µg/mL (≈ 9.81 µM)
- minimal effective concentration [1]: 0.5 µg/mL
- selectivity ratio [3]: 7.7
- MIC [4]: > 64 µg/mL

Structure (SMILES): c1ccc(CCNc2nc3nonc3nc2NCCc2ccccc2)cc1
- minimal effective concentration [1]: 2 µg/mL

Structure (SMILES): CCCCCNc1nc2nonc2nc1NCCCCC
- minimal effective concentration [1]: 1 µg/mL

Structure (SMILES): FC(F)(F)c1nc(NCCCNc2nc3nonc3nc2NCCCNc2ccc(Cl)c(C(F)(F)F)n2)ccc1Cl
- GI50 [2]: 2.6 µg/mL (≈ 4.16 µM)
- minimal effective concentration [1]: 0.25 µg/mL
- selectivity ratio [3]: 10
- MIC [4]: > 64 µg/mL

Structure (SMILES): CCCCCCCCCCNc1nc2nonc2nc1NCCCCCCCCCC
- minimal effective concentration [1]: > 16 µg/mL

Structure (SMILES): CCCNc1nc2nonc2nc1Nc1cccc(Cl)c1
- minimal effective concentration [1]: 1 µg/mL

Structure (SMILES): Fc1cccc(CNc2nc3nonc3nc2NCc2cccc(F)c2)c1
- minimal effective concentration [1]: > 16 µg/mL

Structure (SMILES): C1CCC(Nc2nc3nonc3nc2NC2CCCCC2)CC1
- minimal effective concentration [1]: 4 µg/mL

Structure (SMILES): Clc1cccc(Nc2nc3nonc3nc2NC2CCCC2)c1
- minimal effective concentration [1]: 1 µg/mL

Structure (SMILES): CCCCCCCCNc1nc2nonc2nc1NCCCCCCCC
- minimal effective concentration [1]: 4 µg/mL

Structure (SMILES): FC(F)(F)Oc1cccc(CNc2nc3nonc3nc2Nc2cccc(Cl)c2)c1
- minimal effective concentration [1]: 1 µg/mL

Structure (SMILES): CC(C)CNc1nc2nonc2nc1Nc1cccc(Cl)c1
- minimal effective concentration [1]: 2 µg/mL

Structure (SMILES): CCCCCCNc1nc2nonc2nc1NCCCCCC
- GI50 [2]: 0.59 µg/mL (≈ 1.84 µM)
- minimal effective concentration [1]: 0.5 µg/mL
- selectivity ratio [3]: 1.2
- MIC [4]: > 64 µg/mL

Structure (SMILES): Clc1cccc(Nc2nc3nonc3nc2NCCNc2ccc3ccccc3n2)c1
- minimal effective concentration [1]: 16 µg/mL

Structure (SMILES): Clc1cccc(Nc2nc3nonc3nc2NC2CCC2)c1
- minimal effective concentration [1]: 1 µg/mL

Structure (SMILES): C1CCC(Nc2nc3nonc3nc2NC2CCCC2)C1
- minimal effective concentration [1]: 8 µg/mL

Structure (SMILES): CCCCCCCCCCCCNc1nc2nonc2nc1NCCCCCCCCCCCC
- minimal effective concentration [1]: > 16 µg/mL

Structure (SMILES): Clc1ccc(CNc2nc3nonc3nc2Nc2cccc(Cl)c2)cc1
- GI50 [2]: 4.9 µg/mL (≈ 12.7 µM)
- minimal effective concentration [1]: 0.25 µg/mL
- selectivity ratio [3]: 19
- MIC [4]: > 64 µg/mL

Structure (SMILES): CC(C)CCNc1nc2nonc2nc1Nc1cccc(Cl)c1
- minimal effective concentration [1]: 1 µg/mL

Structure (SMILES): CCCCCCNc1nc2nonc2nc1Nc1cccc(Cl)c1
- minimal effective concentration [1]: 1 µg/mL

Structure (SMILES): CCCCCCCCCCNc1nc2nonc2nc1Nc1cccc(Cl)c1
- minimal effective concentration [1]: 2 µg/mL

Structure (SMILES): CCCCCCCNc1nc2nonc2nc1Nc1cccc(Cl)c1
- GI50 [2]: 3.3 µg/mL (≈ 9.15 µM)
- minimal effective concentration [1]: 0.5 µg/mL
- selectivity ratio [3]: 6.6
- MIC [4]: > 64 µg/mL

— ChEMBL document CHEMBL6087399, “Extended structure-activity relationship studies of the [1,2,5]oxadiazolo[3,4-b]pyrazine-containing colistin adjuvants” (Bioorg Med Chem Lett, 2025)
